Assay results taken from patent US9028845B2, “Chimeric immunomodulatory compounds and methods of using the same-IV” (Dynavax Technologies Corporation, priority 2001, dated 2015).

Test system: human PBMCs
Experiment: Human PBMC cytokine response assay (IFN-γ and IFN-α in cell-free medium by ELISA), with or without cPLGA;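 for IFN-α (pg/ml) mean: 20 µg/mL compound for 24 hours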;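 for IFN-γ (pg/ml) mean: 20 µg/mL compound for 24 hours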
Format: cell-based
Conditions: for IFN-α (pg/ml) mean / IFN-γ (pg/ml) mean: mean of donors 110, 112, 119, 120
[1] = Example 59, 0.8 ug/ml, donor 48
[2] = Example 59, 0.8 ug/ml, donor 177
[3] = Example 59, 0.8 ug/ml, donor 272
[4] = Example 59, 0.8 ug/ml, donor 273
[5] = Example 59, 0.8 ug/ml, mean of four donors
[6] = Example 59, 4 ug/ml, mean of four donors
[7] = Example 59, 20 ug/ml, donor 177
[8] = Example 59, 20 ug/ml, donor 272
[9] = Example 59, 20 ug/ml, donor 273
[10] = Example 59, 20 ug/ml, mean of four donors
[11] = Table 25, mean of donors 28250-28253

Row | Substance | IFN-α [1] [pg/mL] | IFN-α [2] [pg/mL] | IFN-α [3] [pg/mL] | IFN-α [4] [pg/mL] | IFN-α mean [5] [pg/mL] | IFN-α (Example 59, 4 ug/ml, donor 48) [pg/mL] | IFN-α (Example 59, 4 ug/ml, donor 177) [pg/mL] | IFN-α (Example 59, 4 ug/ml, donor 272) [pg/mL] | IFN-α (Example 59, 4 ug/ml, donor 273) [pg/mL] | IFN-α mean [6] [pg/mL] | IFN-α (Example 59, 20 ug/ml, donor 48) [pg/mL] | IFN-α [7] [pg/mL] | IFN-α [8] [pg/mL] | IFN-α [9] [pg/mL] | IFN-α mean [10] [pg/mL] | IFN-α (Table 10, donor 28042) [pg/mL] | IFN-γ (Table 10, donor 28042) [pg/mL] | IFN-α (Table 10, donor 28043) [pg/mL] | IFN-γ (Table 10, donor 28043) [pg/mL] | IFN-α (Table 10, donor 28044) [pg/mL] | other results
1 | (5′-TCGACGT-HEG)2-glycerol-HEG-5′-ACTTAGAGGTTCAGTAGG-3′ (SEQ ID NO: 157) (DNA, all phosphorothioate, methylation of C not given here; Two heptamer DNA arms joined by HEG spacers and glycerol branching to the chain) [Compound C-202] | 830 | 102 | 102 | 102 | 284 | 2250 | 2482 | 1222 | 215 | 1542 | 1901 | 2742 | 612 | 339 | 1399 | – | – | – | – | – | –
2 | 5′-TCGTTTT-3′-HEG-5′-TCGTTTT-3′-HEG-5′-TCGTTTT-3′ [Compound C-41] | – | – | – | – | – | – | – | – | – | – | – | – | – | – | – | 0 | 174 | 3 | 1075 | 23 | IFN-γ (Table 10, donor 28044): 841 pg/mL; IFN-α (Table 10, donor 28045): 0 pg/mL; IFN-γ (Table 10, donor 28045): 45 pg/mL; IFN-α mean (Table 10, mean of donors): 7 pg/mL; IFN-γ mean (Table 10, mean of donors): 534 pg/mL; IFN-α (donor 110, Table 14): 58 pg/mL; IFN-γ (donor 110, Table 14): 512 pg/mL; IFN-α (donor 112, Table 14): 2 pg/mL; IFN-γ (donor 112, Table 14): 100 pg/mL; IFN-α (donor 119, Table 14): 182 pg/mL; IFN-γ (donor 119, Table 14): 32 pg/mL; IFN-α (donor 120, Table 14): 6 pg/mL; IFN-γ (donor 120, Table 14): 32 pg/mL; IFN-α (pg/ml) mean (Table 14): 62 pg/mL; IFN-γ (pg/ml) mean (Table 14): 169 pg/mL
3 | (5′-TCGACGT-HEG)2-glycerol-HEG-5′-CCTACTGAACCTCTAAGT-3′ (SEQ ID NO: 158) (DNA, all phosphorothioate, methylation of C not given here; Two heptamer DNA arms joined by HEG spacers and glycerol branching to the chain) [Compound C-203] | 102 | 102 | 102 | 102 | 102 | 691 | 487 | 102 | 102 | 346 | 735 | 681 | 102 | 102 | 405 | – | – | – | – | – | –
4 | 5′-TCGTCGT-3′-HEG-5′-TCGTCGT-3′-HEG-5′-TCGTCGT-3′ [Compound C-42] | – | – | – | – | – | – | – | – | – | – | – | – | – | – | – | 0 | 198 | 29 | 1067 | 24 | IFN-γ (Table 10, donor 28044): 4000 pg/mL; IFN-α (Table 10, donor 28045): 0 pg/mL; IFN-γ (Table 10, donor 28045): 37 pg/mL; IFN-α mean (Table 10, mean of donors): 13 pg/mL; IFN-γ mean (Table 10, mean of donors): 1326 pg/mL; IFN-α (donor 110, Table 14): 250 pg/mL; IFN-γ (donor 110, Table 14): 1508 pg/mL; IFN-α (donor 112, Table 14): 26 pg/mL; IFN-γ (donor 112, Table 14): 204 pg/mL; IFN-α (donor 119, Table 14): 156 pg/mL; IFN-γ (donor 119, Table 14): 56 pg/mL; IFN-α (donor 120, Table 14): 36 pg/mL; IFN-γ (donor 120, Table 14): 56 pg/mL; IFN-α (pg/ml) mean (Table 14): 117 pg/mL; IFN-γ (pg/ml) mean (Table 14): 456 pg/mL
5 | 5′-TCGACGT-3′ [Compound P-14, reference compound] | – | – | – | – | – | – | – | – | – | – | – | – | – | – | – | – | – | – | – | – | IFN-a (Table 25, donor 28250): 16 pg/mL; IFN-g (Table 25, donor 28250, polynucleotides/spacers at amounts equivalent to the CIC, spacers alone 9 uM): 10 pg/mL; IFN-a (Table 25, donor 28251): 16 pg/mL; IFN-g (Table 25, donor 28251): 34 pg/mL; IFN-a (Table 25, donor 28252): 16 pg/mL; IFN-g (Table 25, donor 28252): 11 pg/mL; IFN-a (Table 25, donor 28253): 16 pg/mL; IFN-g (Table 25, donor 28253): 10 pg/mL; IFN-a mean [11]: 16 pg/mL; IFN-g mean [11]: 16 pg/mL
6 | (5′-TAGTCAT-3′-HEG)2-glycerol-HEG-5′-AACCTTC-3′ [Compound M-3, reference compound] | 102 | 102 | 102 | 102 | 102 | 102 | 102 | 102 | 102 | 102 | 102 | 102 | 102 | 102 | 102 | – | – | – | – | – | IFN-α (Example 58, 0.8 ug/ml, donor 1): 52 pg/mL; IFN-α (Example 58, 0.8 ug/ml, donor 2): 52 pg/mL; IFN-α (Example 58, 0.8 ug/ml, donor 3): 52 pg/mL; IFN-α (Example 58, 0.8 ug/ml, donor 4): 52 pg/mL; IFN-α mean (Example 58, 0.8 ug/ml, mean of four individuals): 52 pg/mL; IFN-α (Example 58, 4 ug/ml, donor 1): 52 pg/mL; IFN-α (Example 58, 4 ug/ml, donor 2): 52 pg/mL; IFN-α (Example 58, 4 ug/ml, donor 3): 52 pg/mL; IFN-α (Example 58, 4 ug/ml, donor 4): 52 pg/mL; IFN-α mean (Example 58, 4 ug/ml, mean of four individuals): 52 pg/mL; IFN-α (Example 58, 20 ug/ml, donor 1): 52 pg/mL; IFN-α (Example 58, 20 ug/ml, donor 2): 52 pg/mL; IFN-α (Example 58, 20 ug/ml, donor 3): 52 pg/mL; IFN-α (Example 58, 20 ug/ml, donor 4): 52 pg/mL; IFN-α mean (Example 58, 20 ug/ml, mean of four individuals): 52 pg/mL
